Source: ChEMBL document CHEMBL4028802, “DILIrank: the largest reference drug list ranked by the risk for developing drug-induced liver injury in humans” (Drug Discov Today, 2016)
Starred links: 1 amine or outer side, 2 acyl side, 3 side chain; linkers in the order of their positions; H or OH if unused. Positions of bridges follow the written chain, without caps; N, C: chain ends. Non-standard residues stand in square brackets, D forms with d. Residues, ends and D or L forms follow the SMILES beside them. Chains are numbered I, II in the order given. Actinocin(9to1) = Cc1c2oc3c(C)ccc(C(=O)[*:1])c3nc-2c(C(=O)[*:2])c(N)c1=O; NMeV = CN[C@H](C(=O)O)C(C)C; Sar = CNCC(=O)O

Legend:
[1] = organism: Homo sapiens; assay: Liver toxicity in human assessed as induction of drug-induced liver injury by measuring severity class index
[2] = organism: Homo sapiens; assay: Liver toxicity in human assessed as induction of drug-induced liver injury by measuring verified drug-induced liver injury concern status
Wherever DILI severity class is given: key of the grades not given here.

Compound: CCCCCc1cc(O)c2c(c1)OC(C)(C)[C@@H]1CCC(C)=C[C@@H]21 [DRONABINOL]
- DILI_severity_class [1]: 3
- DILI_Concern [2]: Ambiguous-Dili-Concern

Compound: CC(=O)OCC[N+](C)(C)C.[Cl-] [ACETYLCHOLINE CHLORIDE]
- DILI_severity_class [1]: 0
- DILI_Concern [2]: No-Dili-Concern

Compound: CC(C)(O)c1ccccc1CC[C@@H](SCC1(CC(=O)O)CC1)c1cccc(/C=C/c2ccc3ccc(Cl)cc3n2)c1 [MONTELUKAST]
- DILI_severity_class [1]: 3
- DILI_Concern [2]: Less-Dili-Concern

Compound: Cc1c2oc3c(C)ccc(C(=O)N[C@@H]4C(=O)N[C@H](C(C)C)C(=O)N5CCC[C@H]5C(=O)N(C)CC(=O)N(C)[C@@H](C(C)C)C(=O)O[C@@H]4C)c3nc-2c(C(=O)N[C@@H]2C(=O)N[C@H](C(C)C)C(=O)N3CCC[C@H]3C(=O)N(C)CC(=O)N(C)[C@@H](C(C)C)C(=O)O[C@@H]2C)c(N)c1=O [DACTINOMYCIN] (I: T[dV]P[Sar][NMeV] / II: T[dV]P[Sar][NMeV]; ester I:1-I:C, II:1-II:C; linker I:N-II:N via Actinocin(9to1))
- DILI_severity_class [1]: 8
- DILI_Concern [2]: Most-Dili-Concern

Compound: CC1(C)NC(=O)N(c2ccc([N+](=O)[O-])c(C(F)(F)F)c2)C1=O [NILUTAMIDE]
- DILI_severity_class [1]: 8
- DILI_Concern [2]: Most-Dili-Concern

Compound: CN(C)CCC=C1c2ccccc2C=Cc2ccccc21 [CYCLOBENZAPRINE]
- DILI_severity_class [1]: 5
- DILI_Concern [2]: Less-Dili-Concern

Compound: CCCN(CCC)CCc1cccc2c1CC(=O)N2 [ROPINIROLE]
- DILI_severity_class [1]: 4
- DILI_Concern [2]: Less-Dili-Concern

Compound: Nc1nc(=O)n([C@@H]2CS[C@H](CO)O2)cc1F [EMTRICITABINE]
- DILI_severity_class [1]: 2
- DILI_Concern [2]: Ambiguous-Dili-Concern

Compound: CCCCCC(=O)O[C@]1(C(C)=O)CC[C@H]2[C@@H]3CCC4=CC(=O)CC[C@]4(C)[C@H]3CC[C@@]21C [HYDROXYPROGESTERONE CAPROATE]
- DILI_severity_class [1]: 2
- DILI_Concern [2]: Ambiguous-Dili-Concern

Compound: OC(CNCC(O)C1CCc2cc(F)ccc2O1)C1CCc2cc(F)ccc2O1 (centres undefined) [NEBIVOLOL]
- DILI_severity_class [1]: 3
- DILI_Concern [2]: Ambiguous-Dili-Concern

Compound: CSc1ccc2c(c1)N(CCC1CCCCN1C)c1ccccc1S2 (centres undefined) [THIORIDAZINE]
- DILI_severity_class [1]: 5
- DILI_Concern [2]: Less-Dili-Concern

Compound: CCc1oc2ccccc2c1C(=O)c1cc(I)c(O)c(I)c1 [BENZIODARONE]
- DILI_severity_class [1]: 8
- DILI_Concern [2]: Most-Dili-Concern

Compound: COc1ccccc1Oc1c(NS(=O)(=O)c2ccc(C(C)(C)C)cc2)nc(-c2ncccn2)nc1OCCO [BOSENTAN]
- DILI_severity_class [1]: 7
- DILI_Concern [2]: Most-Dili-Concern

Compound: CCCCCN(C)CCC(O)(P(=O)(O)O)P(=O)(O)O [IBANDRONIC ACID]
- DILI_severity_class [1]: 0
- DILI_Concern [2]: No-Dili-Concern

Compound: CN1C(CSCC(F)(F)F)Nc2cc(Cl)c(S(N)(=O)=O)cc2S1(=O)=O (centres undefined) [POLYTHIAZIDE]
- DILI_severity_class [1]: 2
- DILI_Concern [2]: Ambiguous-Dili-Concern

Compound: CC(O)C(=O)[O-].[Na+] (centres undefined) [SODIUM LACTATE]
- DILI_severity_class [1]: 0
- DILI_Concern [2]: No-Dili-Concern

Compound: COc1ccc(Cl)cc1C(=O)NCCc1ccc(S(=O)(=O)NC(=O)NC2CCCCC2)cc1 [GLYBURIDE]
- DILI_severity_class [1]: 3
- DILI_Concern [2]: Less-Dili-Concern

Compound: CC(C)[C@H]1CC[C@H](C(=O)N[C@H](Cc2ccccc2)C(=O)O)CC1 [NATEGLINIDE]
- DILI_severity_class [1]: 3
- DILI_Concern [2]: Ambiguous-Dili-Concern

Compound: CN(C)CCOc1ccc(/C(=C(/CCCl)c2ccccc2)c2ccccc2)cc1 [TOREMIFENE]
- DILI_severity_class [1]: 3
- DILI_Concern [2]: Ambiguous-Dili-Concern

Compound: CC(C)NCC(O)c1ccc(O)c(O)c1 (centres undefined) [ISOPROTERENOL]
- DILI_severity_class [1]: 0
- DILI_Concern [2]: No-Dili-Concern

Compound: CN1c2c(oc(=O)n(-c3ccccn3)c2=O)-c2ccccc2S1(=O)=O [DROXICAM]
- DILI_severity_class [1]: 8
- DILI_Concern [2]: Most-Dili-Concern

Compound: CC(=O)Nc1nnc(S(N)(=O)=O)s1 [ACETAZOLAMIDE]
- DILI_severity_class [1]: 8
- DILI_Concern [2]: Most-Dili-Concern
